Data: patent US9242970B2 (ACTELION PHARMACEUTICALS LTD., priority 2010, dated 2016)
pIC50: −log10 of the molar value.

Tests used:
human orexin-1 receptor = human orexin-1 receptor (Homo sapiens (Human), UniProt O43613); experiment: In vitro assay: intracellular calcium measurements (FLIPR), antagonistic activity; assay type: cell-based; conditions: CHO cells, 3 nM orexin-A, compound incubation 120 min; marked values are geometric means of n = 2-6; read-out: IC50 OX1
human orexin-2 receptor = human orexin-2 receptor (Homo sapiens (Human), UniProt O43614); experiment: as above; assay type: cell-based; conditions: CHO cells, 3 nM orexin-A, compound incubation 120 min; marked values are geometric means of n = 2-6; read-out: IC50 OX2
Sequence of human orexin-2 receptor (O43614 whole entry): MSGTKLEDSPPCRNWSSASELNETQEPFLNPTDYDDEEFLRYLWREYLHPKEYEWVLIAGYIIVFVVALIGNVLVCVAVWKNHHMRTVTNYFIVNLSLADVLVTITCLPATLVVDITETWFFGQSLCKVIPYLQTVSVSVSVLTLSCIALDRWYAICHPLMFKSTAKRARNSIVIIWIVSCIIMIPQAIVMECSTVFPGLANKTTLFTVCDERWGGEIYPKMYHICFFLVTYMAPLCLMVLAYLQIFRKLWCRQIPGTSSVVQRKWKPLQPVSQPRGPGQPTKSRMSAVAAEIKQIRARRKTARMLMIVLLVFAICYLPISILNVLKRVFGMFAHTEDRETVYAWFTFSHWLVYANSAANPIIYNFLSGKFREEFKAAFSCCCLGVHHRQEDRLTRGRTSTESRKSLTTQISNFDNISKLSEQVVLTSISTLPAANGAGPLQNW

Sequence of human orexin-1 receptor (O43613 whole entry): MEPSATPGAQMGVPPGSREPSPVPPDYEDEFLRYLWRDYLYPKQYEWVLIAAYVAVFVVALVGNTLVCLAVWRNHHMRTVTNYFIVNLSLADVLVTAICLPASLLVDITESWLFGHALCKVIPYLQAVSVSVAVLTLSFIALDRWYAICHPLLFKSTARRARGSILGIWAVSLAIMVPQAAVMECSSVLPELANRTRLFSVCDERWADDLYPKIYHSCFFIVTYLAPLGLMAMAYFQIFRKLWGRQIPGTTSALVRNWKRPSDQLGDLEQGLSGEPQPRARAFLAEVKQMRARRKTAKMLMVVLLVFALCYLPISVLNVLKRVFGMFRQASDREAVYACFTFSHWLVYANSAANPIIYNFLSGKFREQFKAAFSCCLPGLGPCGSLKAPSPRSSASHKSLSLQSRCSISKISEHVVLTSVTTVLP

Row | Structure (SMILES) | pIC50 (human orexin-1 receptor) | pIC50 (human orexin-2 receptor)
1 | O=C1CCC(c2ccccc2-c2ccccc2)N1Cc1cccc(-c2ccccc2)c1 (stereo not drawn) [Example 285, 5-([1,1′-biphenyl]-2-yl)-1-([1,1′-biphenyl]-3-ylmethyl)pyrrolidin-2-one] | 6.61 | 6.27
2 | Cc1nc(-c2cccc(CN3C(=O)CCC3c3ccccc3-c3ccccc3)c2)cs1 (stereo not drawn) [Example 286, 5-([1,1′-biphenyl]-2-yl)-1-(3-(2-methylthiazol-4-yl)benzyl)pyrrolidin-2-one] | 6.98 | 6.34
3 | O=C1CCC(c2ccccc2-c2ccccc2)N1Cc1ccc(OC(F)(F)F)cc1 (stereo not drawn) [Example 287, 5-([1,1′-biphenyl]-2-yl)-1-(4-(trifluoromethoxy)benzyl)pyrrolidin-2-one] | 6.04 | 6.23
4 | O=C1CCC(c2ccccc2-c2ccccc2)N1Cc1csc(-c2ccccc2)n1 (stereo not drawn) [Example 288, 5-([1,1′-biphenyl]-2-yl)-1-((2-phenylthiazol-4-yl)methyl)pyrrolidin-2-one] | 6.08 | 5.86
5 | CC1CC(c2ccccc2-c2ccccc2)N(Cc2cccc(-c3ccccc3)c2)C1=O (stereo not drawn) [Example 289, 5-([1,1′-biphenyl]-2-yl)-1-([1,1′-biphenyl]-3-ylmethyl)-3-methylpyrrolidin-2-one] | 6.38 | 6.22
6 | Cc1nc(-c2cccc(CN3C(=O)C(C)CC3c3ccccc3-c3ccccc3)c2)cs1 (stereo not drawn) [Example 290, 5-([1,1′-biphenyl]-2-yl)-3-methyl-1-(3-(2-methylthiazol-4-yl)benzyl)pyrrolidin-2-one] | 6.99 | 6.34
7 | CC1CC(c2ccccc2-c2ccccc2)N(Cc2ccc(OC(F)(F)F)cc2)C1=O (stereo not drawn) [Example 291, 5-([1,1′-biphenyl]-2-yl)-3-methyl-1-(4-(trifluoromethoxy)benzyl)pyrrolidin-2-one] | 5.69 | 6.34
8 | COc1cccc(OC)c1C1CCC(=O)N1Cc1ccc(Oc2nc(C)cs2)cc1 (stereo not drawn) [Example 292, 5-(2,6-dimethoxyphenyl)-1-(4-((4-methylthiazol-2-yl)oxy)benzyl)pyrrolidin-2-one] | 6.67 | 6.90
9 | COc1cccc(OC)c1C1CC(F)(F)C(=O)N1Cc1cccc(-c2ccccc2)c1 (stereo not drawn) [Example 336, 1-([1,1′-biphenyl]-3-ylmethyl)-5-(2,6-dimethoxyphenyl)-3,3-difluoropyrrolidin-2-one] | 7.80 | 7.09
10 | CCOc1cccc(OC)c1C1CC(F)(F)C(=O)N1Cc1cccc(-c2ccccc2)c1 (stereo not drawn) [Example 337, 1-([1,1′-biphenyl]-3-ylmethyl)-5-(2-ethoxy-6-methoxyphenyl)-3,3-difluoropyrrolidin-2-one] | 7.92 | 7.20
11 | COc1cccc(OC)c1C1CC(C)C(=O)N1Cc1cnc2ccccc2c1 (stereo not drawn) [Example 347, 5-(2,6-dimethoxyphenyl)-3-methyl-1-(quinolin-3-ylmethyl)pyrrolidin-2-one] | 5.85 | 6.11
12 | COc1cccc(OC)c1C1CC(C)C(=O)N1Cc1ccc2ccccc2n1 (stereo not drawn) [Example 348, 5-(2,6-dimethoxyphenyl)-3-methyl-1-(quinolin-2-ylmethyl)pyrrolidin-2-one] | 6.69 | 6.32
13 | COc1ccnc(OC)c1C1CC(C)C(=O)N1Cc1cccc(-c2ncc(C)s2)c1 (stereo not drawn) [Example 349, 5-(2,4-dimethoxypyridin-3-yl)-3-methyl-1-(3-(5-methylthiazol-2-yl)benzyl)pyrrolidin-2-one] | 6.98 | 6.92
14 | COc1ccnc(OC)c1C1CC(C)C(=O)N1Cc1csc(-c2ccc(C)cc2)n1 (stereo not drawn) [Example 350, 5-(2,4-dimethoxypyridin-3-yl)-3-methyl-1-((2-(p-tolyl)thiazol-4-yl)methyl)pyrrolidin-2-one] | 6.18 | 7.29
15 | COc1cccc(OC)c1C1CC(C)C(=O)N1Cc1ccnc(-c2ncc(C)s2)c1 (stereo not drawn) [Example 351, 5-(2,6-dimethoxyphenyl)-3-methyl-1-((2-(5-methylthiazol-2-yl)pyridin-4-yl)methyl)pyrrolidin-2-one] | 7.80 | 7.29
16 | COc1ccnc(OC)c1C1CC(C)C(=O)N1Cc1ccc2oc3ccccc3c2c1 (stereo not drawn) [Example 352, 1-(dibenzo[b,d]furan-2-ylmethyl)-5-(2,4-dimethoxypyridin-3-yl)-3-methylpyrrolidin-2-one] | 8.15 | 7.89
17 | COc1cccc(OC)c1C1CC(F)(F)C(=O)N1Cc1ccc2oc3ccccc3c2c1 (stereo not drawn) [Example 353, 1-(dibenzo[b,d]furan-2-ylmethyl)-5-(2,6-dimethoxyphenyl)-3,3-difluoropyrrolidin-2-one] | 8.40 | 7.72
18 | COc1ccnc(OC)c1C1CC(C)C(=O)N1Cc1cccc(-c2ccccc2)c1 (stereo not drawn) [Example 354, 1-([1,1′-biphenyl]-3-ylmethyl)-5-(2,4-dimethoxypyridin-3-yl)-3-methylpyrrolidin-2-one] | 7.25 | 6.95
19 | COc1ccnc(OC)c1C1CC(C)C(=O)N1Cc1cccc(-c2nc(Cl)cs2)c1 (stereo not drawn) [Example 355, 1-(3-(4-chlorothiazol-2-yl)benzyl)-5-(2,4-dimethoxypyridin-3-yl)-3-methylpyrrolidin-2-one] | 7.47 | 6.99
20 | COc1ccnc(OC)c1C1CC(C)C(=O)N1Cc1cccc(-c2csc(C)n2)c1 (stereo not drawn) [Example 356, 5-(2,4-dimethoxypyridin-3-yl)-3-methyl-1-(3-(2-methylthiazol-4-yl)benzyl)pyrrolidin-2-one] | 7.52 | 6.95
21 | COc1cccc(F)c1C1CC(C)C(=O)N1Cc1cnc2ccccc2c1 (stereo not drawn) [Example 358, 5-(2-fluoro-6-methoxyphenyl)-3-methyl-1-(quinolin-3-ylmethyl)pyrrolidin-2-one] | 6.02 | 5.90
22 | COc1cccc(F)c1C1CC(C)C(=O)N1Cc1ccc2ccccc2n1 (stereo not drawn) [Example 359, 5-(2-fluoro-6-methoxyphenyl)-3-methyl-1-(quinolin-2-ylmethyl)pyrrolidin-2-one] | 5.77 | 6.48
23 | COc1cccc(F)c1C1CC(C)C(=O)N1Cc1ccnc(-c2ncc(C)s2)c1 (stereo not drawn) [Example 360, 5-(2-fluoro-6-methoxyphenyl)-3-methyl-1-((2-(5-methylthiazol-2-yl)pyridin-4-yl)methyl)pyrrolidin-2-one] | 6.45 | 7.92
24 | COc1cccc(F)c1C1CC(C)C(=O)N1Cc1ccnc(-n2cccn2)c1 (stereo not drawn) [Example 361, 1-((2-(1H-pyrazol-1-yl)pyridin-4-yl)methyl)-5-(2-fluoro-6-methoxyphenyl)-3-methylpyrrolidin-2-one] | 6.07 | 7.06
25 | COc1cccc(F)c1C1CC(C)C(=O)N1Cc1ccc2oc3ccccc3c2c1 (stereo not drawn) [Example 362, 1-(dibenzo[b,d]furan-2-ylmethyl)-5-(2-fluoro-6-methoxyphenyl)-3-methylpyrrolidin-2-one] | 7.07 | 8.22
26 | COc1cccc(F)c1C1CC(C)C(=O)N1Cc1csc(-c2ccc(C)cc2)n1 (stereo not drawn) [Example 363, 5-(2-fluoro-6-methoxyphenyl)-3-methyl-1-((2-(p-tolyl)thiazol-4-yl)methyl)pyrrolidin-2-one] | 6.37 | 7.31
27 | COc1cccc(F)c1C1CC(C)C(=O)N1Cc1cccc(-c2ncc(C)s2)c1 (stereo not drawn) [Example 364, 5-(2-fluoro-6-methoxyphenyl)-3-methyl-1-(3-(5-methylthiazol-2-yl)benzyl)pyrrolidin-2-one] | 6.92 | 7.96
